According to article PMC11129182, “Development of Inhibitors, Probes, and PROTAC Provides a Complete Toolbox to Study PARK7 in the Living Cell” (Journal of Medicinal Chemistry, 2024):

Legend:
[1] = molecular target: T1, PARK7 (Homo sapiens, UniProt Q99497); assay: High-throughput screen of the crude compound library, PARK7 fluorescence polarization (FP) assay with FP reagent JYQ-107; format: biochemical; conditions: 1.25 µM, crude compound library; read-out: HTS FP assay %Inhibition (1.25 µM)
T1 sequence (Q99497 1-189): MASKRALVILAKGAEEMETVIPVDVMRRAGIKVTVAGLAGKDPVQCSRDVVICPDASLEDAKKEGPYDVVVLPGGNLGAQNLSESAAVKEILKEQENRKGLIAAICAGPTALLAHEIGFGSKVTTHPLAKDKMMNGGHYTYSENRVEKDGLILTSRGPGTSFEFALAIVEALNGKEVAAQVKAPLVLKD

[2] = molecular target: T1, PARK7; assay: Hit validation and pure-compound testing in the PARK7 FP assay with JYQ-107; format: biochemical; conditions: crude compounds; for inhibition at 0.25 µM: read-out: % Inhibition 0.25 µM; for inhibition at 0.5 µM: read-out: % Inhibition 0.5 µM

N#CN1CC[C@@H](C(=O)Nc2nc3c(s2)CN(C(=O)c2cnn(-c4cccc(Br)c4)c2)CC3)C1 [Compound 156]
inhibition at 1.25 µM [1]: 92.6%
inhibition at 0.25 µM [2]: 50.5%
inhibition at 0.5 µM [2]: 79.8%
inhibition at 1 µM [2]: 94.7%

N#CN1CC[C@@H](C(=O)Nc2nc3c(s2)CN(C(=O)C2CC(=O)N(C4CCCCCC4)C2)CC3)C1 (stereo partly shown) [Compound 163]
inhibition at 1.25 µM [1]: 89.6%
inhibition at 0.25 µM [2]: 43.1%
inhibition at 0.5 µM [2]: 70.9%
inhibition at 1 µM [2]: 90.3%

N#CN1CC[C@@H](C(=O)Nc2nc3c(s2)CN(C(=O)c2cc(C4CCCCC4)[nH]n2)CC3)C1 [Compound 164]
inhibition at 1.25 µM [1]: 95.1%
inhibition at 0.25 µM [2]: 48.2%
inhibition at 0.5 µM [2]: 75.6%
inhibition at 1 µM [2]: 94.4%

Cc1ccc(-c2cc(C(=O)N3CCc4nc(NC(=O)[C@@H]5CCN(C#N)C5)sc4C3)n[nH]2)s1 [Compound 165]
inhibition at 1.25 µM [1]: 95.1%
inhibition at 0.25 µM [2]: 56.4%
inhibition at 0.5 µM [2]: 82.2%
inhibition at 1 µM [2]: 95.6%

N#CN1CC[C@@H](C(=O)Nc2nc3c(s2)CN(C(=O)C2CN(S(=O)(=O)C4CC4)C2)CC3)C1 [Compound 174]
inhibition at 1.25 µM [1]: 91.8%
inhibition at 0.25 µM [2]: 35%
inhibition at 0.5 µM [2]: 63.1%
inhibition at 1 µM [2]: 87.7%

Cc1ccc([C@@H]2C[C@H]2C(=O)N2CCc3nc(NC(=O)[C@@H]4CCN(C#N)C4)sc3C2)s1 [Compound 188]
inhibition at 1.25 µM [1]: 94.2%
inhibition at 0.25 µM [2]: 53.3%
inhibition at 0.5 µM [2]: 79%
inhibition at 1 µM [2]: 94.5%

N#CN1CC[C@@H](C(=O)Nc2nc3c(s2)CN(C(=O)c2ccc(Cl)c(N4CCCS4(=O)=O)c2)CC3)C1 [Compound 197]
inhibition at 1.25 µM [1]: 95.6%
inhibition at 0.25 µM [2]: 65.4%
inhibition at 0.5 µM [2]: 85.8%
inhibition at 1 µM [2]: 95%

N#CN1CC[C@@H](C(=O)Nc2nc3c(s2)CN(C(=O)c2cccc(Cn4ccnc4)c2)CC3)C1 [Compound 215]
inhibition at 1.25 µM [1]: 91.5%
inhibition at 0.25 µM [2]: 52.1%
inhibition at 0.5 µM [2]: 78.4%
inhibition at 1 µM [2]: 93.3%

N#CN1CC[C@@H](C(=O)Nc2nc3c(s2)CN(C(=O)Cc2cnn(-c4ccccc4)n2)CC3)C1 [Compound 217]
inhibition at 1.25 µM [1]: 78.9%
inhibition at 0.25 µM [2]: 55.5%
inhibition at 0.5 µM [2]: 85.4%
inhibition at 1 µM [2]: 94.3%

N#CN1CC[C@@H](C(=O)Nc2nc3c(s2)CN(C(=O)c2cnn(-c4ccc(Br)cc4)c2)CC3)C1 [Compound 219]
inhibition at 1.25 µM [1]: 96.4%
inhibition at 0.25 µM [2]: 65.1%
inhibition at 0.5 µM [2]: 87.4%
inhibition at 1 µM [2]: 96.7%

COc1ccc(C(=O)N2CCc3nc(NC(=O)[C@@H]4CCN(C#N)C4)sc3C2)cc1S(=O)(=O)NCCCN1CCOCC1 [Compound 242]
inhibition at 1.25 µM [1]: 89.2%
inhibition at 0.25 µM [2]: 46.8%
inhibition at 0.5 µM [2]: 71.2%
inhibition at 1 µM [2]: 91.4%

N#CN1CC[C@@H](C(=O)Nc2nc3c(s2)CN(C(=O)c2ccc(-c4ccccn4)s2)CC3)C1 [Compound 258]
inhibition at 1.25 µM [1]: 89.2%
inhibition at 0.25 µM [2]: 44.4%
inhibition at 0.5 µM [2]: 72.9%
inhibition at 1 µM [2]: 91%

N#CN1CC[C@@H](C(=O)Nc2nc3c(s2)CN(C(=O)c2ccc(Oc4cccc(Cl)c4)cn2)CC3)C1 [Compound 268]
inhibition at 1.25 µM [1]: 89.7%
inhibition at 0.25 µM [2]: 33.9%
inhibition at 0.5 µM [2]: 63.1%
inhibition at 1 µM [2]: 82.8%

N#CN1CC[C@@H](C(=O)Nc2nc3c(s2)CN(C(=O)c2ccc(-c4ccccn4)nc2)CC3)C1 [Compound 274]
inhibition at 1.25 µM [1]: 92.9%
inhibition at 0.25 µM [2]: 44.5%
inhibition at 0.5 µM [2]: 71.4%
inhibition at 1 µM [2]: 91.8%

N#CN1CC[C@@H](C(=O)Nc2nc3c(s2)CN(C(=O)c2cc(-n4cccc4)ccn2)CC3)C1 [Compound 279]
inhibition at 1.25 µM [1]: 94.2%
inhibition at 0.25 µM [2]: 82.4%
inhibition at 0.5 µM [2]: 96.1%
inhibition at 1 µM [2]: 96.8%

COc1ccccc1-c1cc(C(=O)N2CCc3nc(NC(=O)[C@@H]4CCN(C#N)C4)sc3C2)n[nH]1 [Compound 293]
inhibition at 1.25 µM [1]: 97.5%
inhibition at 0.25 µM [2]: 48.1%
inhibition at 0.5 µM [2]: 76%
inhibition at 1 µM [2]: 93%
